Key:
B. caballi = test: In vitro growth inhibition, Babesia fluorescent (SYBR Green I) assay; assay type: cell-based; conditions: Babesia caballi, 96 h, 4 days culture, mean of triplicate experiments
Protocol: (§1) Babesia parasite was incubated and maintained at 37 °C in a humidifying chamber under 5% CO2, 5% O2, and 90% N2 atmosphere using a microaerophilic stationary-phase culture for conducting the in vitro experiment. Briefly, Germany strain Babesia divergens was cultured in cattle RBCs in Roswell Park Memorial Institute 1640 (RPMI 1640; Sigma-Aldrich, St. Louis, MO, USA) medium replenished with 40% cattle serum, while culture medium 199 (M199; Sigma-Aldrich) was utilized for the Argentina strain B. bigemina and Texas strain B. bovis, and T. equi USDA strain cultured in cattle RBCs supplemented with 40% cattle serum and horse RBCs maintained in hypoxanthine (MP Biomedicals, Santa Ana, CA, USA; final concentration 13.6 μg/mL) and 40% horse serum, respectively. GIT medium complemented with 40% horse serum was used as a growth medium for the USDA strain of B. caballi cultured in horse RBCs. To ensure free-bacterial contamination, amphotericin B (0.15 μg/mL) (Sigma-Aldrich), streptomycin (60 U/mL) and penicillin G (60 U/mL) were added to all medium.
(§2) The Babesia fluorescent assay was carried out on the in vitro culture as previously reported elsewhere to assess the growth of the inhibitory effectiveness of ATR and the combination treatment with DA, CF, and AV. Briefly, in three separate trials, using two-fold dilution, different concentrations of ATR, DA, CF, and AV were prepared in the culture medium and added in 96-well plates in triplicate with 1% parasitemia for T. equi, B. divergens and B. caballi at 5% HCT, while for B. bigemina and B. bovis using 2.5% HCT. The drug combined efficacy was conducted at the same time with the single-treatment assay in accordance with the Chou–Talalay method. […] On day four of culture, an aliquot (100 µL) of lysis buffer mixed with 0.2μL/mL SG1 was added per well; subsequently, it was covered with aluminum foil to prevent exposure to light. After incubation for 6-h at 37 °C, fluorescence readings were acquired on a spectrofluorimeter (Fluoroskan Ascent, Thermo Fisher Scientific, Oceanside, CA, USA) with a 485 nm excitation wavelength and a 518 nm emission wavelength.
(§3) The IC50 values of ATR, DA, CF, and AV were established from the in vitro growth inhibition by nonlinear regression curve fit on a GraphPad Prism (GraphPad Software Inc., San Diego, CA, USA). […] The significant variations (p < 0.05) among group mean values on parasitemia and one-way ANOVA Tukey’s test in GraphPad Prism version 5.0 was used to analyze hematology profiles in mice infected with B. microti.

B. divergens = test: as above; assay type: cell-based; conditions: 96 h, 4 days culture, mean of triplicate experiments
Protocol: as §1, §2, §3

T. equi = test: as above; assay type: cell-based; conditions: 96 h, 4 days culture, mean of triplicate experiments
Protocol: as §1, §2, §3

B. bovis = test: as above; assay type: cell-based; conditions: Bos taurus, 96 h, 4 days culture, mean of triplicate experiments
Protocol: as §1, §2, §3

B. bigemina = test: as above; assay type: cell-based; conditions: 96 h, 4 days culture, mean of triplicate experiments
Protocol: as §1, §2, §3

B. microti = conditions: days 4-8 p.i., B. microti-infected BALB/c mice
NIH/3T3 cells = test: Cytotoxicity assay (CCK-8 cell viability); assay type: cell-based, mouse
Protocol: (§4) Cultures of human foreskin fibroblast (HFF; HFF-1 ATCC® SCRC-1041™), Madin–Darby bovine kidney (MDBK; ECACC) and mouse embryonic fibroblast (NIH/3T3; ATCC® CRL-1658™) cells were retrieved from −80 °C stock and cultured continuously at 37 °C under atmosphere 5% CO2 in our laboratory. The NIH/3T3 and HFFs cells were maintained in Dulbecco Modified Eagle’s Medium (DMEM; Gibco, Grand Island, NY, USA), while MDBK cell line grown in Minimum Essential Medium Eagle (MEM; Gibco). Each medium was treated with 0.5% penicillin/streptomycin (Gibco), 10% inactivated fetal bovine serum and 2 mM glutamine. Every 72 to 96 h, the medium was replaced, and once 80% confluence was reached, the cell collection was performed by sub-culture protocol. To confirm the absence of mycoplasma contamination, 4,6-diamidino-2-phenylindole dihydrochloride stain (Sigma-Aldrich) was used.
(§5) The cell viability test was conducted in a 96-well plate as described elsewhere. Briefly, an aliquot of (100 µL) cells was implanted at a concentration of 5 × 10^4 cells/mL in DMEM or MEM with fetal bovine serum and incubated overnight under atmosphere 5% CO2 at 37 °C for attachment. Using two-fold dilutions, aliquots (10 µL) of drugs were added in triplicate per well to attain final concentrations of 50 to 1000 µM and further incubated for 24 h. The positive control wells containing cells mixed with the medium in 0.4% DMSO, whereas the negative control wells containing culture medium only. After a 24-h incubation, Cell Counting Kits-8 (CCK-8, 10 µL) was added to each well and then plate incubation was conducted for an additional 3 h and a microplate reader was used to assess the absorbance at 450 nm.

[1] = Hematology parameters (HGB, HCT, RBCs) in B. microti-infected treated mice; assay type: in vivo, BALB/c mice; parameters: HGB Mean: unit not given beside the values; RBCs Mean: unit not given here; conditions: DA 25, AV 20, ATR 25, ATR 12.5+DA 12.5, ATR 12.5+AV 10 mg/kg BW, days 4-8 p.i.
HFFs = test: Cytotoxicity assay (CCK-8 cell viability); assay type: cell-based, human
Protocol: as §4, §5

- IC50 (B. caballi): 100 ± 10 nM
- IC50 (B. divergens): 40 nM
- IC50 (T. equi): 90 ± 60 nM
- IC50 (B. bovis): 40 nM
- IC50 (B. bigemina): 700 ± 40 nM
Compound: O=C1C(O)=C([C@H]2CC[C@H](c3ccc(Cl)cc3)CC2)C(=O)c2ccccc21 [AV, atovaquone]
- peak parasitemia level (B. microti; AV at 20 mg/kg, peak on day 10): 10.99%
- first day on which parasitemia was not detected by microscopy (B. microti; DA 25, AV 20, ATR 25, ATR 12.5+DA 12.5, ATR 12.5+AV 10 mg/kg BW): 18 day p.i.
- Selective Index NIH/3T3 (NIH/3T3 cells; EC50 NIH/3T3 / IC50 B. bigemina): ˃142.7
- Selective Index NIH/3T3 (NIH/3T3 cells; EC50 NIH/3T3 / IC50 B. bovis): ˃2564
- Selective Index NIH/3T3 (NIH/3T3 cells; EC50 NIH/3T3 / IC50 B. caballi): ˃980.4
- Selective Index NIH/3T3 (NIH/3T3 cells; EC50 NIH/3T3 / IC50 B. divergens): ˃2631
- Selective Index NIH/3T3 (NIH/3T3 cells; EC50 NIH/3T3 / IC50 T. equi): ˃1052
- EC50 (NIH/3T3 cells; Mus musculus, NIH3T3, NIH/3T3 cells, 24 h, CCK-8, read-out: EC50 NIH/3T3): > 100000 nM
- HCT Mean ([1]; day 0): 47.48%
- HGB Mean ([1]; day 0): 14.44
- RBCs Mean ([1]; day 0): 1060.62
- HCT Mean ([1]; day 4): 45%
- HGB Mean ([1]; day 4): 13.64
- RBCs Mean ([1]; day 4): 984.75
- HCT Mean ([1]; day 8): 44%
- HGB Mean ([1]; day 8): 14.34
- RBCs Mean ([1]; day 8): 878
- HCT Mean ([1]; day 12): 40%
- HGB Mean ([1]; day 12): 12.6
- RBCs Mean ([1]; day 12): 850
- HCT Mean ([1]; day 16): 43%
- HGB Mean ([1]; day 16): 13.96
- RBCs Mean ([1]; day 16): 830.25
- HCT Mean ([1]; day 20): 45%
- HGB Mean ([1]; day 20): 14.92
- RBCs Mean ([1]; day 20): 844
- HCT Mean ([1]; day 24): 46%
- HGB Mean ([1]; day 24): 15.4
- RBCs Mean ([1]; day 24): 850
- HCT Mean ([1]; day 28): 48%
- HGB Mean ([1]; day 28): 15.64
- RBCs Mean ([1]; day 28): 984.75
- HCT Mean ([1]; day 32): 50%
- HGB Mean ([1]; day 32): 16
- RBCs Mean ([1]; day 32): 1000.62
- HCT Mean ([1]; day 36): 51%
- HGB Mean ([1]; day 36): 16.44
- RBCs Mean ([1]; day 36): 1060.62
- Selective Index HFFs (HFFs; EC50 HFFs / IC50 B. bigemina): ˃142.7
- Selective Index HFFs (HFFs; EC50 HFFs / IC50 B. bovis): ˃2564
- Selective Index HFFs (HFFs; EC50 HFFs / IC50 B. caballi): ˃980.4
- Selective Index HFFs (HFFs; EC50 HFFs / IC50 B. divergens): ˃2631
- Selective Index HFFs (HFFs; EC50 HFFs / IC50 T. equi): ˃1052
- EC50 (HFFs; Homo sapiens, HFFs, 24 h, CCK-8): > 100000 nM

Source: PMC7167990, “Therapeutic Effects of Atranorin towards the Proliferation of Babesia and Theileria Parasites” (Pathogens, 2020)
